This note sets out measurements from US20240390338A1, “METHODS FOR TREATING NEUROGENERATIVE DISEASES” (PTC THERAPEUTICS, INC., priority 2021, published 2024).

Where only a bound is given, the exact number is not on record here.

In the test the test system is MAPT 3R mRNA. The experiment in a line: RT-qPCR Assay to Quantify MAPT 3R mRNA in Cells. It is filed as cell-based. The following applies: cells incubated with compound 24 h; 7-point concentration curve; MAPT minigene 3R RT-qPCR with GAPDH assay; EC2X interpolated from dose response curve. On the procedure:
RT-qPCR Assay to Quantify MAPT 3R mRNA in Cells
Test compounds were serially diluted 3.16-fold in 100% DMSO to generate a 7-point concentration curve. Aliquots of 0.5 μL of diluted compounds were transferred to a 96-well flat bottom plate by a liquid handler. An aliquot of 0.5 μL DMSO was also transferred to separate wells and used as controls. Duplicate samples were set up for each compound concentration and for the DMSO control.
Cells were thawed and incubated in cell culture media (DMEM, 10% FBS, and 1% antibiotic cocktail) for 72 h. Cells were trypsinized, counted, and re-suspended to a concentration of 200,000 cells/mL in cell culture media. A 100 μL aliquot of the cell suspensions were plated at 20,000 cells per well in the compound containing 96 well microtiter plate and incubated for in a cell culture incubator (37° C., 5% CO2, 100% relative humidity).
After 24 h, media was aspirated from the cells and 20 μL of the RCL2 lysis buffer (10 mM Tris-HCL pH 7.4, 150 mM NaCl, 0.33% IGEPAL® CA-630) was added to each well and incubated at RT for 1 min. Chilled nuclease free water (140 μL per well) was added and the plates were immediately transferred on ice. After 1 min on ice, plates were frozen at −80° C. overnight.
Preparation of RT-qPCR Reaction Mixture:
An aliquot of 4 μL/well of the cell lysates was transferred using the liquid handler to the Armadillo 384-Well PCR plate containing 6 μL/well of the RT-qPCR reaction mixture that was prepared as detailed above. The plates were then sealed with MicroAmp™ Optical Adhesive Film followed by spinning down for 1 min and placed in the CFX384 thermocycler (BioRad).
The RT-qPCR was carried out at the following temperatures for the indicated time: • Step 1: 48° C. (30 min) • Step 2: 95° C. (10 min) • Step 3: 95° C. (15 sec) • Step 4: 60° C. (1 min); then, repeated Steps 3 and 4 for a total of 40 cycles.
The percent exon 4 skipping was calculated for each dose of compound treatment using Equations 1 and 2.
Data were fit to a dose response curve and the EC2X was interpolated using XLfit® statistical and curve fitting package.
An EC2X value between >1000 nM and ≤1500 nM is indicated by two stars (**). An EC2X value between >500 nM and ≤1000 nM is indicated by three stars (***). An EC2X value between >50 nM and ≤500 nM is indicated by four stars (****). An EC2X value ≤50 nM is indicated by five stars (*****).
Background: In qPCR the cycle at which signal appears reflects the starting amount.
Turning to `Cc1c(C[C@@H](N)CS(C)(=O)=O)sc2c(NCc3ccco3)cc(Cl)nc12` [Cpd 108, 2-[(2R)-2-amino-3-(methanesulfonyl)propyl]-5-chloro-N-[(furan-2-yl)methyl]-3-methylthieno[3,2-b]pyridin-7-amine], the EC (2-fold increase) was in the range of 0.05 to 0.5 µM. `CS(=O)(=O)C[C@H](N)Cc1sc2c(NCc3ccco3)cc(Cl)nc2c1Br` [Cpd 117, 2-[(2R)-2-amino-3-(methanesulfonyl)propyl]-3-bromo-5-chloro-N-[(furan-2-yl)methyl]thieno[3,2-b]pyridin-7-amine]: the EC (2-fold increase) lay in the range of 0.05 to 0.5 µM. The result for `COC[C@H](N)Cc1sc2c(NCc3ccco3)cc(Cl)nc2c1Cl` [Cpd 40, 2-[(2R)-2-amino-3-methoxypropyl]-3,5-dichloro-N-[(furan-2-yl)methyl]thieno[3,2-b]pyridin-7-amine] reads no more than 0.05 µM; that for `Cc1c(C[C@H](C)N)sc2c(NCc3nccs3)cc(Cl)nc12` [Cpd 57, 2-[(2S)-2-aminopropyl]-5-chloro-3-methyl-N-[(1,3-thiazol-2-yl)methyl]thieno[3,2-b]pyridin-7-amine], no more than 0.05 µM.

For `Cc1c(C[C@@H](N)CO)sc2c(NCc3ccco3)cc(Cl)nc12` [Cpd 58, (2R)-2-amino-3-(5-chloro-7-{[(furan-2-yl)methyl]amino}-3-methylthieno[3,2-b]pyridin-2-yl)propan-1-ol], the EC (2-fold increase) was no more than 0.05 µM. The result for `COC[C@H](N)Cc1sc2c(NCc3ccco3)cc(Cl)nc2c1Br` [Cpd 44, 2-[(2R)-2-amino-3-methoxypropyl]-3-bromo-5-chloro-N-[(furan-2-yl)methyl]thieno[3,2-b]pyridin-7-amine] reads no more than 0.05 µM; that for `CSC[C@H](N)Cc1sc2c(NCc3ccco3)cc(Cl)nc2c1Br` [Cpd 118, 2-[(2R)-2-amino-3-(methylsulfanyl)propyl]-3-bromo-5-chloro-N-[(furan-2-yl)methyl]thieno[3,2-b]pyridin-7-amine], no more than 0.05 µM. Turning to `Cc1c(C[C@@H](N)[C@H](C)F)sc2c(NCc3cccs3)cc(Cl)nc12` [Cpd 126, 2-[(2R,3S)-2-amino-3-fluorobutyl]-5-chloro-3-methyl-N-[(thiophen-2-yl)methyl]thieno[3,2-b]pyridin-7-amine], the EC (2-fold increase) was no more than 0.05 µM. The result for `C[C@H](F)[C@H](N)Cc1sc2c(NCc3nccs3)cc(Cl)nc2c1Br` [Cpd 125, 2-[(2R,3S)-2-amino-3-fluorobutyl]-3-bromo-5-chloro-N-[(1,3-thiazol-2-yl)methyl]thieno[3,2-b]pyridin-7-amine] reads no more than 0.05 µM; that for `Cc1c(C[C@@H](N)C(=O)N(C)C)sc2c(NCc3ccco3)cc(Cl)nc12` [Cpd 116, 3-(5-chloro-7-{[(furan-2-yl)methyl]amino}-3-methylthieno[3,2-b]pyridin-2-yl)-N,N-dimethyl-D-alaninamide], 0.05 to 0.5 µM; that for `N[C@@H](CO)Cc1cc2nc(Cl)cc(NCc3ccco3)c2s1` [Cpd 17, (2R)-2-amino-3-(5-chloro-7-{[(furan-2-yl)methyl]amino}thieno[3,2-b]pyridin-2-yl)propan-1-ol], 1 to 1.5 µM. For the molecule `N[C@H](Cc1sc2c(NCc3cccs3)cc(Cl)nc2c1Br)CC(F)F` [Cpd 107, 2-[(2S)-2-amino-4,4-difluorobutyl]-3-bromo-5-chloro-N-[(thiophen-2-yl)methyl]thieno[3,2-b]pyridin-7-amine], the EC (2-fold increase) was in the range of 0.05 to 0.5 µM. As to `C[C@H](N)Cc1sc2c(NCc3ccco3)cc(Cl)nc2c1C#N` [Cpd 109, 2-[(2S)-2-aminopropyl]-5-chloro-7-{[(furan-2-yl)methyl]amino}thieno[3,2-b]pyridine-3-carbonitrile], the EC (2-fold increase) was no more than 0.05 µM. For the molecule `CS(=O)(=O)C[C@H](N)Cc1sc2c(NCc3ccco3)cc(Cl)nc2c1Cl` [Cpd 113, 2-[(2R)-2-amino-3-(methanesulfonyl)propyl]-3,5-dichloro-N-[(furan-2-yl)methyl]thieno[3,2-b]pyridin-7-amine], the EC (2-fold increase) lay in the range of 0.05 to 0.5 µM. For the molecule `N[C@H](Cc1sc2c(NCc3ccco3)cc(Cl)nc2c1Cl)C(=O)Nc1ccccc1F` [Cpd 120, 3-(3,5-dichloro-7-{[(furan-2-yl)methyl]amino}thieno[3,2-b]pyridin-2-yl)-N-(2-fluorophenyl)-D-alaninamide], the EC (2-fold increase) lay in the range of 0.05 to 0.5 µM.

Regarding `Cc1c(C[C@@H](N)CCF)sc2c(NCc3cccs3)cc(Cl)nc12` [Cpd 92, 2-[(2S)-2-amino-4-fluorobutyl]-5-chloro-3-methyl-N-[(thiophen-2-yl)methyl]thieno[3,2-b]pyridin-7-amine], the EC (2-fold increase) was 0.05 to 0.5 µM. For `Cc1c(C[C@H](C)N)sc2c(NCc3ccco3)cc(Cl)nc12` [Cpd 18, 2-[(2S)-2-aminopropyl]-5-chloro-N-[(furan-2-yl)methyl]-3-methylthieno[3,2-b]pyridin-7-amine], the EC (2-fold increase) was no more than 0.05 µM. As to `Cc1c(C[C@@H](N)C(=O)Nc2cnccn2)sc2c(NCc3ccco3)cc(Cl)nc12` [Cpd 135, 3-(5-chloro-7-{[(furan-2-yl)methyl]amino}-3-methylthieno[3,2-b]pyridin-2-yl)-N-pyrazin-2-yl-D-alaninamide], the EC (2-fold increase) was in the range of 0.05 to 0.5 µM. Take `Cc1c(C[C@@H](N)CF)sc2c(NCc3cccs3)cc(Cl)nc12` [Cpd 91, 2-[(2R)-2-amino-3-fluoropropyl]-5-chloro-3-methyl-N-[(thiophen-2-yl)methyl]thieno[3,2-b]pyridin-7-amine]: the EC (2-fold increase) is no more than 0.05 µM.

Take `CSC[C@H](N)Cc1sc2c(NCc3ccco3)cc(Cl)nc2c1C` [Cpd 104, 2-[(2R)-2-amino-3-(methylsulfanyl)propyl]-5-chloro-N-[(furan-2-yl)methyl]-3-methylthieno[3,2-b]pyridin-7-amine]: the EC (2-fold increase) was no more than 0.05 µM. The result for `N[C@H](Cc1sc2c(NCc3ccco3)cc(Cl)nc2c1Cl)C(=O)Nc1ccccc1` [Cpd 122, 3-(3,5-dichloro-7-{[(furan-2-yl)methyl]amino}thieno[3,2-b]pyridin-2-yl)-N-phenyl-D-alaninamide] reads 0.05 to 0.5 µM. For the molecule `Cc1c(C[C@@H](N)[C@H](C)F)sc2c(NCc3nccs3)cc(Cl)nc12` [Cpd 128, 2-[(2R,3S)-2-amino-3-fluorobutyl]-5-chloro-3-methyl-N-[(1,3-thiazol-2-yl)methyl]thieno[3,2-b]pyridin-7-amine], the EC (2-fold increase) is no more than 0.05 µM. As to `N#CC[C@H](N)Cc1sc2c(NCc3cccs3)cc(Cl)nc2c1Cl` [Cpd 106, (3S)-3-amino-4-(3,5-dichloro-7-{[(thiophen-2-yl)methyl]amino}thieno[3,2-b]pyridin-2-yl)butanenitrile], the EC (2-fold increase) is 0.05 to 0.5 µM. For `COC[C@H](N)Cc1sc2c(NCc3ccco3)cc(Cl)nc2c1C` [Cpd 45, 2-[(2R)-2-amino-3-methoxypropyl]-5-chloro-N-[(furan-2-yl)methyl]-3-methylthieno[3,2-b]pyridin-7-amine], the EC (2-fold increase) was no more than 0.05 µM. On to `Cc1c(C[C@@H](N)C(=O)O)sc2c(NCc3ccco3)cc(Cl)nc12` [Cpd 115, 3-(5-chloro-7-{[(furan-2-yl)methyl]amino}-3-methylthieno[3,2-b]pyridin-2-yl)-D-alanine], for which the EC (2-fold increase) is no more than 0.05 µM. With `N[C@@H](CO)Cc1sc2c(NCc3ccco3)cc(Cl)nc2c1Cl` [Cpd 39, (2R)-2-amino-3-(3,5-dichloro-7-{[(furan-2-yl)methyl]amino}thieno[3,2-b]pyridin-2-yl)propan-1-ol], the EC (2-fold increase) fell in the range of 0.05 to 0.5 µM. Under `N[C@H](CF)Cc1sc2c(NCc3cccs3)cc(Cl)nc2c1Br` [Cpd 63, 2-[(2S)-2-amino-3-fluoropropyl]-3-bromo-5-chloro-N-[(thiophen-2-yl)methyl]thieno[3,2-b]pyridin-7-amine] stands 1 to 1.5 µM. On to `Cc1c(C[C@H](C)N)sc2c(NCc3cccs3)cc(C#N)nc12` [Cpd 54, 2-[(2S)-2-aminopropyl]-3-methyl-7-{[(thiophen-2-yl)methyl]amino}thieno[3,2-b]pyridine-5-carbonitrile], for which the EC (2-fold increase) was in the range of 0.05 to 0.5 µM.
